What all share (format): functional
For assay [1], the system named is Aspergillus niger. Description: Antifungal activity against Aspergillus niger by broth serial microdilution method.
For assay [2], the system named is Staphylococcus aureus. Description: Antibacterial activity against Staphylococcus aureus after 24 hr by broth serial microdilution method. (In broth dilution the organism is exposed to a series of concentrations in liquid medium.)
In assay [3] the test system is Bacillus subtilis. Description: Antibacterial activity against Bacillus subtilis after 24 hr by broth serial microdilution method.
The test system of assay [4] is Salmonella typhi. Description: Antibacterial activity against Salmonella enterica subsp. enterica serovar Typhi after 24 hr by broth serial microdilution method.
Assay [5] deals with Klebsiella pneumoniae. Description: Antibacterial activity against Klebsiella pneumoniae after 24 hr by broth serial microdilution method.

≈ marks a conversion by molar mass, not a printed value.

`Nc1nc(NCC(=O)NC(=S)Nc2nc3ccccc3s2)c2ncn(S(=O)(=O)c3ccccc3)c2n1`: the MIC (as a rule, the lowest concentration that inhibits growth of the organism) in assay [1] was determined as 550 µM (≈ 297 µg/mL); in assay [2] it was 560 µM (≈ 302 µg/mL); in assay [3] it was 1290 µM (≈ 696 µg/mL); in assay [4] it was 560 µM (≈ 302 µg/mL); in assay [5], 550 µM (≈ 297 µg/mL).
Turning to `Nc1nc(NCC(=O)NC(=S)Nc2nc3c(Cl)cccc3s2)c2ncn(S(=O)(=O)c3ccccc3)c2n1`, the MIC amounted to 350 µM (≈ 201 µg/mL) in assay [1]; 350 µM (≈ 201 µg/mL) in assay [2]; 350 µM (≈ 201 µg/mL) in assay [3]; 350 µM (≈ 201 µg/mL) in assay [4]; 170 µM (≈ 97.6 µg/mL) in assay [5].
As to `Nc1nc(NCC(=O)NC(=S)Nc2nc3cc([N+](=O)[O-])ccc3s2)c2ncn(S(=O)(=O)c3ccccc3)c2n1`, the MIC in assay [1], in assay [2], in assay [3], in assay [4] and in assay [5] was 510 µM (≈ 298 µg/mL) throughout.
Regarding `Nc1nc(NCC(=O)NC(=S)Nc2nc3c([N+](=O)[O-])cccc3s2)c2ncn(S(=O)(=O)c3ccccc3)c2n1`, the minimum inhibitory concentration (MIC) in assay [1], in assay [2], in assay [3], in assay [4] and in assay [5] was 510 µM (≈ 298 µg/mL) throughout.
For `Nc1nc(NCC(=O)NC(=S)Nc2nc3ccc(F)cc3s2)c2ncn(S(=O)(=O)c3ccccc3)c2n1`, the MIC came out at 360 µM (≈ 201 µg/mL) in assay [1]; 530 µM (≈ 296 µg/mL) in assay [2]; 360 µM (≈ 201 µg/mL) in assay [3]; 360 µM (≈ 201 µg/mL) in assay [4]; 180 µM (≈ 100 µg/mL) in assay [5].
Regarding `COc1ccc2nc(NC(=S)NC(=O)CNc3nc(N)nc4c3ncn4S(=O)(=O)c3ccccc3)sc2c1`, the MIC is 180 µM (≈ 103 µg/mL) in assay [1]; 350 µM (≈ 199 µg/mL) in assay [2]; 180 µM (≈ 103 µg/mL) in assay [3]; 540 µM (≈ 308 µg/mL) in assay [4]; 350 µM (≈ 199 µg/mL) in assay [5].
`Nc1nc(NCC(=O)NC(=S)Nc2nc3ccc(Cl)cc3s2)c2ncn(S(=O)(=O)c3ccccc3)c2n1`: the minimum inhibitory concentration (MIC) in assay [1] turned out to be 350 µM (≈ 201 µg/mL); in assay [2], 520 µM (≈ 299 µg/mL); in assay [3] it was 350 µM (≈ 201 µg/mL); in assay [4], 530 µM (≈ 304 µg/mL); in assay [5], 350 µM (≈ 201 µg/mL).
Consider `Cc1ccc2nc(NC(=S)NC(=O)CNc3nc(N)nc4c3ncn4S(=O)(=O)c3ccccc3)sc2c1`, for which the MIC in assay [1] was found to be 540 µM (≈ 299 µg/mL); in assay [2], 540 µM (≈ 299 µg/mL); in assay [3], 540 µM (≈ 299 µg/mL); in assay [4], 530 µM (≈ 293 µg/mL); in assay [5], 540 µM (≈ 299 µg/mL).
As for `Nc1nc(NCC(=O)NC(=S)Nc2nc3ccc([N+](=O)[O-])cc3s2)c2ncn(S(=O)(=O)c3ccccc3)c2n1`, the MIC in assay [1], in assay [2], in assay [3], in assay [4] and in assay [5] was 510 µM (≈ 298 µg/mL) throughout.
For `COc1ccc2sc(NC(=S)NC(=O)CNc3nc(N)nc4c3ncn4S(=O)(=O)c3ccccc3)nc2c1`, the minimum inhibitory concentration (MIC) in assay [1] turned out to be 350 µM (≈ 199 µg/mL); in assay [2], 530 µM (≈ 302 µg/mL); in assay [3], 350 µM (≈ 199 µg/mL); in assay [4], 350 µM (≈ 199 µg/mL); in assay [5], 530 µM (≈ 302 µg/mL).
On to `CC1(C)S[C@@H]2[C@H](NC(=O)[C@H](N)c3ccccc3)C(=O)N2[C@H]1C(=O)O` [AMPICILLIN], for which the MIC is 130 µM (≈ 45.4 µg/mL) in assay [2], 270 µM (≈ 94.3 µg/mL) in assay [3], 200 µM (≈ 69.9 µg/mL) in assay [4] and 130 µM (≈ 45.4 µg/mL) in assay [5].
Take `O=C(O)c1cn(C2CC2)c2cc(N3CCNCC3)c(F)cc2c1=O` [CIPROFLOXACIN]: the MIC in assay [2] came to 190 µM (≈ 63 µg/mL); in assay [3], 250 µM (≈ 82.8 µg/mL); in assay [4] it was 190 µM (≈ 63 µg/mL); in assay [5], 120 µM (≈ 39.8 µg/mL).
Molecule `OC(Cn1cncn1)(Cn1cncn1)c1ccc(F)cc1F` [FLUCONAZOLE] returned a minimum inhibitory concentration (MIC) in assay [1] of 350 µM (≈ 107 µg/mL).

Source of the values: ChEMBL document CHEMBL3045200, “Design, synthesis of some 2,6,9-trisubstituted purinyl thioureido derivatives and evaluation of antimicrobial activity” (2012).
